Measured values: patent US20240285552A1 (priority 2020, published 2024)
Entries after “also recorded” stand apart in the source; their conditions may differ. Counter-ions that a name gives are not always drawn. Like-named read-outs stand apart in the source and are kept apart here.

Legend:
[1] = system: ACE1; assay: Western blotting, ACE1 expression in A549 cells; type: cell-based, human; conditions: 50 μm, 24 hrs and 48 hrs
Protocol: Western blotting. A549 “Lung” cells (RRID:CVCL_COQ5) were harvested in a radioimmuno precipitation assay (RIPA) buffer (Tris 10 mM pH 7.4, containing 140 mM NaCl, 1 mM EDTA, 1 mM NaF, 0.10% SDS, 0.50% sodium deoxycholate 0.1% NP-40, 1% Triton X-100) in the presence of protease inhibitors (Thermo Fisher) at 24 hrs. and 48 hrs. Protein concentration was determined by was determined using bicinchoninic acid with bovine serum albumin as a standard (Thermo Fisher). Equal amounts of protein were loaded and separated by SDS-PAGE using 10% pre-casted gels (Biorad). Proteins were electroblotted onto nitrocellulose membranes (Bio-Rad). The blots were blocked using 5% (w/v) milk in Tris-buffered saline containing 0.5% (v/v) Tween-20. The membranes were then incubated with different antibodies. Antibodies directed against ACE1 (ab28311) and ACE2 (ab108209) were used and the GAPDH antibody was used as loading control for cell lysates. Primary and secondary antibodies were diluted in Tris-buffered saline containing (0.5% v/v) Tween-20 (TBS-T) supplemented with 5% milk. The bands were visualized by incubating the blots with enhanced chemiluminescence reagent (ECL, Biorad) and visualized using chemidoc. Band intensities were quantified by using imagelab software Biorad.

[2] = system: SARS-CoV-2 USA_WA1/2020; conditions: hamster
[3] = system: SARS-CoV-2 spike pseudotyped lentivirus; assay: microbe, parasite or virus in culture; type: cell-based; conditions: for Percent Inhibition of fusion of SARS-CoV-2 spike pseudotyped lentivirus with HEK293-ACE2 cells: hydrochloride
[4] = in vitro; conditions: African green monkey
[5] = system: Vero E6 cells; conditions: Vero E6; at 30 μM; Example B
[6] = molecular target: T1, rhACE2 and SARS-CoV-2 Spike (RBD) protein interaction (Homo sapiens, UniProt Q9BYF1); assay: Spike (RBD)-ACE2 binding assay (ELISA); design: species or system human; SARS-CoV-2; conditions: for IC50: bell-shaped model, AMB, BHH
T1 construct: purchased RayBiotech CoV-SACE2-1
T1 sequence (Q9BYF1 18-740): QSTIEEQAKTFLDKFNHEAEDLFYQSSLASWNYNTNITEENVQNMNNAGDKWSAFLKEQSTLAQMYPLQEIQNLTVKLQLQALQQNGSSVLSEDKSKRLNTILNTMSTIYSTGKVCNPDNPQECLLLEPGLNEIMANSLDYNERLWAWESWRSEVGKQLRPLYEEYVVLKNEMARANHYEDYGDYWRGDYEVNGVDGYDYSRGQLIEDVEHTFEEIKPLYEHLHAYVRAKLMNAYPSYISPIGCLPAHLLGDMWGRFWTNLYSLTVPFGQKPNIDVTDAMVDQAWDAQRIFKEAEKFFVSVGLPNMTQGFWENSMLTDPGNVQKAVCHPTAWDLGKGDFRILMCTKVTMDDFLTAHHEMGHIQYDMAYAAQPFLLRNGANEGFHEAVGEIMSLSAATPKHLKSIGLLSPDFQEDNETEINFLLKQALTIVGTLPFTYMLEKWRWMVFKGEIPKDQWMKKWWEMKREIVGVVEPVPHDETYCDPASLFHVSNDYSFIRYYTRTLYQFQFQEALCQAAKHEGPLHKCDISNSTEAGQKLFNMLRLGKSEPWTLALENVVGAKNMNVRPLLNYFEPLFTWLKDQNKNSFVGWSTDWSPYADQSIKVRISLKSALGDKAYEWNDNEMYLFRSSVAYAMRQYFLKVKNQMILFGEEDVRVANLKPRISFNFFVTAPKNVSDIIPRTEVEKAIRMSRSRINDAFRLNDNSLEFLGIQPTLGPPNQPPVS

[7] = system: SARS-CoV-2 USA_WA1/2020; assay: microbe, parasite or virus in culture; type: cell-based
[8] = molecular target: T2, ACE1 (Homo sapiens, UniProt P12821); assay: ACE1 activity assay (colorimetric); type: biochemical; conditions: hydrochloride
T2 construct: purchased Sigma-Aldrich MAK422
T2 sequence (P12821 30-1306): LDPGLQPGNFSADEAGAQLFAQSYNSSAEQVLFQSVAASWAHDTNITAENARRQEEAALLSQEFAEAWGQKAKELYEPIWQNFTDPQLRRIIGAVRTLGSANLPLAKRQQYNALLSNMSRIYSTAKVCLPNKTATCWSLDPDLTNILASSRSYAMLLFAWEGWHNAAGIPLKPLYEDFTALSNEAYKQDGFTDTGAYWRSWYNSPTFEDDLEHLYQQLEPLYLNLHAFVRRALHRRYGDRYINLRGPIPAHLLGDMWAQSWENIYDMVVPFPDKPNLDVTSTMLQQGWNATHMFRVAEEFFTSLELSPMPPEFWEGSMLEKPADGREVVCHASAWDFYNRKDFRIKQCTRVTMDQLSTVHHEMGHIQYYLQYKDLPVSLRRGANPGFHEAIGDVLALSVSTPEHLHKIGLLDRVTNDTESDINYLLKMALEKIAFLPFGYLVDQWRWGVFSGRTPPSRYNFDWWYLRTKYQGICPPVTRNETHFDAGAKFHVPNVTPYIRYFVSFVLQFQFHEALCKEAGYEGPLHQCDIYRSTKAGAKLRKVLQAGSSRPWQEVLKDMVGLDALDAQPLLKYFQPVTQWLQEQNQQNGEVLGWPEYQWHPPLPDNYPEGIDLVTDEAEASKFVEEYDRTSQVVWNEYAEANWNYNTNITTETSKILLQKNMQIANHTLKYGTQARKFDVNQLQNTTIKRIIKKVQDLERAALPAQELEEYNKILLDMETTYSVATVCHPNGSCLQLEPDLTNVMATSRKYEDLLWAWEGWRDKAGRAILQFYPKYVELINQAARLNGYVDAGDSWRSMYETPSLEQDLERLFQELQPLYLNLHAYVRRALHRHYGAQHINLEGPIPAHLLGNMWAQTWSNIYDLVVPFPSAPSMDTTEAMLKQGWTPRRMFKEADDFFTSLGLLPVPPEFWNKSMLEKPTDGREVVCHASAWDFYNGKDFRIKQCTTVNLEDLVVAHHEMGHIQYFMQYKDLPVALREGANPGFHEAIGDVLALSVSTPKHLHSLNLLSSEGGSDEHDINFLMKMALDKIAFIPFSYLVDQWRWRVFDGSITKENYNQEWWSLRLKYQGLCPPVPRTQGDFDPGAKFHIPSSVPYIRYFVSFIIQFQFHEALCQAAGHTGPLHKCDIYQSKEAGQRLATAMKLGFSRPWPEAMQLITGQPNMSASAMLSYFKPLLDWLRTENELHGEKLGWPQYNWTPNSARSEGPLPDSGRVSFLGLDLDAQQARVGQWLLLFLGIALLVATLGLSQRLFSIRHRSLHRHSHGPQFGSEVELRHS
Protocol: ACE1 Activity Assay. ACE1 Inhibitor Screening Kit (Cat #MAK422) was purchased from Sigma-Aldrich (St. Louis, MO) and adapted to determine the effect of BHH and AMB on the enzymatic activity of ACE (Aldrich, 2022). The in vitro colorimetric assay was performed in a transparent flat-bottom 96-well plate. 50 mm and 10 mm solutions of Captropil, a known ACE1 inhibitor were used as a positive inhibitor control. Stock solutions of the compounds were prepared in 100% Dimethyl sulfoxide (DMSO) and further serially diluted in DMSO as follows: 500, 100, 50,10,5,1 and 0.5 μm for AMB and the positive control Captropil. All experiments were performed in quadruplicates. Each plate contained positive controls (1% DMSO) and blank controls with no ACE1 enzyme. Specifically, 2.5 μl of serially diluted compounds were pre-incubated with 2 μl of ACE1 protein diluted in 38 μl of 1× assay diluent buffer for about 15 mins, at room temperature (22° C.). 157.5 μl of 1×ACE1 assay buffer (197.5 μl for −ve control) was added into the 96 well plates. The solution was mixed well and incubated at 37° C. for 15-20 minutes, protected from light. After that, 40 μl of the substrate was added to each well and mixed well. The absorbance was measured immediately at 345 nm (A345) in kinetic mode for 60 minutes.

SMILES: CN(Cc1cc(Br)cc(Br)c1N)C1CCCCC1 [BHH, Bromhexine hydrochloride]
- change of ACE1 expression [1]: no changes
- Overall Gmean Days 1-4, N2 gRNA, rectal swabs [2]: 1.00E+05 copies/swab
- Overall Gmean Days 1-4 higher than Group 3, N2 gRNA, rectal swabs [2]: 2 fold
- Peak viral load versus Group 3, N2 gRNA, rectal swabs [2]: similar
- SARS-CoV-2 genome load, N2 gRNA, lungs ([2]; Day 4): 6.20E+09 copies/gram
- SARS-CoV-2 genome load, N2 gRNA, trachea ([2]; Day 4): 1.21E+09 copies/gram
- active replication load higher than Group 3, E sgRNA, lungs ([2]; Day 4): 3 fold
- active replication load, E sgRNA, lungs ([2]; Day 4): 4.41E+07 copies/gram
- active replication load, E sgRNA, nasal turbinate ([2]; Day 4): 1.67E+08 copies/gram
- active replication load, E sgRNA, trachea ([2]; Day 4): 2.58E+06 copies/gram
- genome load higher than Group 3, N2 gRNA, lungs ([2]; Day 4): 3 fold
- replication load higher than Group 3, E sgRNA, trachea ([2]; Day 4): 2 fold
- viral load higher than Group 3, N2 gRNA, trachea ([2]; Day 4): 2 fold
- serum IL-6 levels versus Group 3 ([2]; Day 4, ELISA, P<0.05): significantly lower
- serum TNF-α versus Group 3 ([2]; Day −1, Day 2 (P<0.05), Day 4 (P<0.001)): significantly low
- serum IL-10 levels between groups ([2]; Days −1, 2, 4): No significance difference
- incidence and severity of microscopic lesions versus vehicle control ([2]; lung histopathology): similar
- lung viral load by TCID50 assay versus vehicle control ([2]; lung samples Day 4): No difference
- SARS-CoV-2 genome load, N2 gRNA, nasal turbinate ([2]; necropsy Day 4): 3.57E+10 copies/gram
- gross lesions in the lung ([2]; necropsy Day 4): reduced gross lesions in the lung
- Overall Gmean Days 1-4, E sgRNA, pharyngeal swabs ([2]; AMB 500, BHH 200 mg/kg/day PO): 4.82E+04 copies/swab
- Overall Gmean Days 1-4 lower than Group 3, E sgRNA, pharyngeal swabs ([2]; AMB 500, BHH 200 mg/kg/day PO): 2 fold
- Overall Gmean Days 1-4 viral load lower than Group 3, N2 gRNA, pharyngeal swabs ([2]; AMB 500, BHH 200 mg/kg/day PO): 2 fold
- Overall Gmean viral load Days 1-4, N2 gRNA, pharyngeal swabs ([2]; AMB 500, BHH 200 mg/kg/day PO): 4.93E+07 copies/swab
- Peak viral load lower than vehicle (Group 3), N2 gRNA, pharyngeal swabs ([2]; AMB 500, BHH 200 mg/kg/day PO): 3 fold
- Peak viral replication load lower than Group 3, E sgRNA, pharyngeal swabs ([2]; AMB 500, BHH 200 mg/kg/day PO): 4 fold
- tolerability of administered doses ([2]; AMB 500, BHH 200 mg/kg/day PO, up to 5 days): tolerated the administered doses well
- Peak viral load, N2 gRNA, pharyngeal swabs ([2]; AMB 500, BHH 200 mg/kg/day PO, peak Day 2 (AMB), Day 1 (BHH)): 4.93E+07 copies/swab
- Peak viral replication load, E sgRNA, rectal swabs ([2]; peak Day 1 (AMB), Day 2 (BHH)): 4.29 copies/swab
- Peak viral replication load, E sgRNA, pharyngeal swabs ([2]; peak Day 2 (AMB), Day 1 (BHH)): 2.65E+05 copies/swab
- Peak viral load, N2 gRNA, rectal swabs ([2]; peak on Day 2): 1.54E+05 copies/swab
- Percent Inhibition of fusion of SARS-CoV-2 spike pseudotyped lentivirus with HEK293-ACE2 cells ([3]; 50 μM, Table 3): 61%
- Percent Inhibition of fusion of SARS-CoV-2 spike pseudotyped lentivirus with HEK293-ACE2 cells ([3]; 100 μM, Table 3): 76%
- inhibition at 50 µM ([3]; Severe acute respiratory syndrome coronavirus 2, 50 μM, Table 3, read-out: Percent Inhibition of fusion of SARS-CoV-2 spike pseudotyped lentivirus with HEK293-ACE2 cells): 57%
- inhibition at 100 µM ([3]; Severe acute respiratory syndrome coronavirus 2, 100 μM, Table 3, read-out: Percent Inhibition of fusion of SARS-CoV-2 spike pseudotyped lentivirus with HEK293-ACE2 cells): 73%
- inhibition at 10 µM ([3]; Severe acute respiratory syndrome coronavirus 2, HEK293, 10 μM, Table 2, read-out: Percent (%) Inhibition of Pseudo virus Entry in HEK293 Kidney Cells, SARS-COV-2): 50%
- inhibition at 100 µM ([3]; Severe acute respiratory syndrome coronavirus 2, HEK293, 100 μM, Table 2, read-out: Percent (%) Inhibition of Pseudo virus Entry in HEK293 Kidney Cells, SARS-COV-2): ≤ 100%
- CC50 at 72 h ([4]; 50% cytotoxic concentration (CC50), Vero E6, 72 hours, Examples A and B, highest concentration 30 μM): > 30 µM
- CC50 at 72 h ([4]; Cytotoxicity CC50, Vero E6, 72 hours, Example C (Table 4)): 58.3 µM
- percent minimum viability [5]: 103.87%
- effect on Spike (RBD)-rhACE2 interaction ([6]; 100 μM to 100 nM, hydrochloride): enhanced the interaction at higher concentrations; also recorded: increased the binding of ACE2 and RBD at high concentrations of 100 and 50 μM but blocked the interaction at low concentrations
- IC50 ([6]; highest tested 100 μM, read-out: Estimated Relative IC50 against rhACE2 and RBD Interaction Assay, IC50_2): 42.9 µM
- IC50 ([6]; read-out: Estimated Relative IC50 against rhACE2 and RBD Interaction Assay, IC50_1): 1.19 µM
- Concentration at Maximum % Inhibition ([7]; Example C (Table 3)): 37.5 µM
- Maximum Inhibition ([7]; Example C (Table 3)): 72.39%
- IC50 ([7]; Severe acute respiratory syndrome coronavirus 2, Vero C1008, Example C (Table 3), read-out: IC 50 against SARS-COV-2 Induced Cytopathic Effect in Vero E6 Cells): ~31.6 µM
- IC50 ([7]; Severe acute respiratory syndrome coronavirus 2, Vero C1008, Vero E6, Example B, highest concentration tested 30 μM, read-out: IC50 against SARS-CoV-2 infection induced CPE): ~21.7 µM
- inhibition at 30 µM ([7]; Severe acute respiratory syndrome coronavirus 2, Vero C1008, at 30 μM, Example B, read-out: inhibition of SARS-CoV-2 induced CPE at maximum concentration): ~91.1%
- EC50 ([7]; Severe acute respiratory syndrome coronavirus 2, Vero C1008, read-out: EC50 values against SARS-CoV-2 (summary statement)): ~30 µM
- effect on exopeptidase activity of ACE [8]: inhibited; also recorded: showed activity against ACE1
